Data taken from article PMC3572379, “Pharmacokinetic and pharmacodynamic effects of comedication of clopidogrel and dabigatran etexilate in healthy male volunteers” (European Journal of Clinical Pharmacology, 2012).
Where two headings read alike, the source gives them in different places. Marks after values point to notes of the source that are not given here. Values belong to the compound of their own block, whether it stands above or below them.

Tests used:
P-gp = conditions: cited from earlier work
[1] = Safety and tolerability assessment; format: in vivo, healthy male subjects
[2] = Plasma pharmacokinetics (HPLC-MS/MS) in open-label drug–drug interaction trial
Procedure: The treatment phase was divided into three separate parts, each with a different set of subjects. Part 1 (pilot study) was an open-label, multiple-dose (for dabigatran etexilate) and single-dose (for clopidogrel), fixed-sequence study. A single dose of clopidogrel 300 mg was given in addition to dabigatran etexilate 150 mg bid in steady state (Table 1). Part 2 (main study) was a randomized, open-label, multiple-dose, crossover study, with three periods of up to 5 days separated by washout periods of at least 14 days. The test treatment consisted of a clopidogrel 300 mg loading dose on day 1, followed by a 75 mg dose on day 2, then clopidogrel 75 mg qd in combination with dabigatran etexilate 150 mg bid on days 3–5 (Table 1). Part 3 (main study) was an open-label, multiple-dose (for dabigatran etexilate) and single-dose (for clopidogrel), fixed-sequence study. A single dose of clopidogrel 600 mg was given alone or in addition to dabigatran 150 mg bid at steady state (Table 1).
Although there are no reported interactions of food with dabigatran etexilate or clopidogrel, the morning medication was administered with about 240 mL of water following an overnight fast of at least 10 h, and no food was allowed until 4 h after drug administration. According to the twice-daily regimen dabigatran etexilate was similarly administered again 12 h later. Subjects were not allowed to lie down during the 2 h following drug administration, and water was limited for 1 h before and after drug administration. On dosing days a light non-standardized breakfast was given 1 h after morning drug administration. On profile days, no food was given until 4 h after administration. No concomitant therapy was allowed during the study, except for prophylactic thyroid hormone replacement and for symptomatic therapy of adverse events (AEs) in need of treatment.
For PK parameter evaluations, blood samples were taken for the determination of plasma concentrations of free, nonconjugated dabigatran, total dabigatran (after alkaline cleavage of conjugates), and the prodrug dabigatran etexilate, and of clopidogrel and SR26334.
Blood samples were taken before and at specified intervals up to 24 h after the morning clopidogrel dose, and before and up to 24 h after the morning and evening dabigatran etexilate dose. Timings of PK/PD sampling are shown in Supplementary Table 1.
Blood samples (∼2.7 mL for dabigatran and ∼4.0 mL for clopidogrel) were collected into tubes containing potassium ethylenediaminetetraacetic acid for PK analysis. Samples were centrifuged, and the resulting plasma samples were separated and stored at −70°C or below.
Plasma concentrations of free, nonconjugated dabigatran; total dabigatran (sum of free and conjugated dabigatran measured after alkaline cleavage of conjugates); the prodrug dabigatran etexilate; clopidogrel; and SR26334 were determined by validated high-performance liquid chromatography tandem mass spectrometry (HPLC-MS/MS) at AAI Pharma Deutschland (Neu-Ulm, Germany). The calibration curves for free and total dabigatran covered a range from 1.00 to 400 ng/mL plasma in undiluted samples. […] Maximum imprecision and inaccuracy for quality control samples at concentrations of 3, 30, and 320 ng/mL were 6.62 and +5.86%, respectively. For the prodrug, maximum imprecision and inaccuracy were 6.63 and +2.83%, respectively.
Calibration curves for clopidogrel and SR26334 covered concentration ranges of 0.01–10 ng/mL and 0.02–20 μg/mL, respectively, with an inaccuracy generally below 4% and imprecision below 9%. For blood coagulation parameters aPTT, ECT, and TT (PD analyses), ∼3 mL of blood were collected in sodium citrate monovettes at the time points indicated for PK analyses. The blood samples were centrifuged, frozen, and stored at −20°C or below.

[3] = tested on: ADP-induced platelet aggregation; experiment: ADP-induced inhibition of platelet aggregation (light transmission aggregometry in citrated PRP); format: in vivo, healthy male subjects; conditions: for Emax: Homo sapiens, Platelet
Procedure: The primary endpoints for PD were area under the effect curve of ADP-induced inhibition of platelet aggregation (IPA) at steady state of clopidogrel over one dosing interval from 0–24 h after dosing (AUECIPA,τ,ss); maximum percentage change compared with baseline in ADP-induced platelet aggregation at steady state of clopidogrel (Emax,IPA,ss); AUEC from 0 to 24 h (AUECIPA,0–24) after the loading dose of clopidogrel 600 mg; and the maximum percentage change compared with baseline in ADP-induced platelet aggregation from 0 to 24 h (Emax,IPA,0–24) after the loading dose of clopidogrel 600 mg.
The following PD parameters were also evaluated: • For clopidogrel, ADP-induced IPA was determined at predefined time points. • Capillary bleeding times were assessed (part 2 and part 3 of the study) before clopidogrel administration, 2, 4, and 12 h after clopidogrel administration, and following administration of dabigatran etexilate alone.
For platelet aggregation testing, ∼9 mL of blood was collected into a 10 mL monovette containing citrate to yield a final concentration of 10.6 mM. Platelet-rich plasma (PRP) was prepared by centrifugation and removed from the red-cell sediment. Approximately 0.5 mL platelet-poor plasma (PPP) was prepared from PRP by further centrifugation. Inhibition of platelet aggregation was performed by light transmission aggregometry in citrated PRP, using an 8-channel platelet aggregation profiler (PAP 8) aggregometer (möLab, Germany). The PRP (0% light transmission) and PPP (100% light transmission) served as reference. After baseline adjustment, ADP in a final concentration of 20 μM was added and aggregation recorded for 6 min. Maximum aggregation (%) within the first 6 min after addition of ADP was determined.

[4] = cited from earlier work
[5] = Capillary bleeding time (Surgicutt device); format: in vivo, healthy male subjects; conditions: for maximum capillary bleeding time (CBT): part 2
Procedure: The bleeding time was assessed by single measurements on the forearm using the Surgicutt® Bleeding Time Device (Product Number SUB50, International Technidyne, Edison, NJ, USA). Using a Surgicutt device, a standardized incision of 5 mm length and 1 mm depth was made in the skin. Every 30 s, the blood flow was wicked away cautiously with filter paper, so that the platelet plug remained intact, until the bleeding stopped. Normal bleeding time was under 8 min. For the CBT individual listings including the baseline value, the maximum value of the post-dose measurements, and the corresponding time of the maximum value were provided.

[6] = tested on: blood coagulation parameters (aPTT, ECT, TT); experiment: Blood coagulation parameters aPTT, ECT and TT (anti-factor IIa); format: in vivo, healthy male subjects
Procedure: The secondary endpoints included other PK parameters and the effects of clopidogrel on the PD of dabigatran assessed by ECT, aPTT, TT (including maximum effect ratio, ERmax) as well as the CBT.
Calibration curves for clopidogrel and SR26334 covered concentration ranges of 0.01–10 ng/mL and 0.02–20 μg/mL, respectively, with an inaccuracy generally below 4% and imprecision below 9%. For blood coagulation parameters aPTT, ECT, and TT (PD analyses), ∼3 mL of blood were collected in sodium citrate monovettes at the time points indicated for PK analyses. The blood samples were centrifuged, frozen, and stored at −20°C or below. The aPTT, ECT, and TT parameters were analyzed on an MC10PLUS coagulometer using validated methods by BiochemA, Riegel, Germany. aPTT was measured using a kit from Roche Diagnostics (Mannheim, Germany) according to manufacturer’s instructions, and the ECT assay utilized ecarin from Pentapharm (Basel, Switzerland). Thrombin inhibition (TT), anti-factor IIa, was measured by the Hemoclot Thrombin Inhibitors Assay® (Hemoclot® TT #CK002K, HYPHEN BioMed, Neuville-sur-Oise, France) according to the manufacturer’s instructions. The Hemoclot kit was used for the quantitative measurement of direct thrombin inhibitors in plasma, with a clotting method based on the inhibition of a constant and defined concentration of thrombin.
AUEC and ERmax of aPTT, ECT, and TT as well as CBT, and safety and tolerability were assessed descriptively as secondary parameters.

[7] = cited from earlier work; remark: listed apart in the source
[8] = male, human, in vivo, po, 75 mg
[9] = male, human, in vivo, po, 600 mg
[10] = part 2, clopidogrel 75 mg qd + DE 150 mg bid vs clopidogrel 75 mg qd
[11] = part 3, clopidogrel 600 mg + DE 150 mg bid vs clopidogrel 600 mg
[12] = part 3, reference: clopidogrel 600 mg single dose, n 12
[13] = part 2, reference: clopidogrel 75 mg qd alone, n=23
[14] = part 2, test: clopidogrel 75 mg qd + DE 150 mg bid, n=21, clopidogrel metabolite
[15] = part 3, DE 150 mg bid + clopidogrel 600 mg vs clopidogrel 600 mg

SMILES: COC(=O)[C@H](c1ccccc1Cl)N1CCc2sccc2C1 [Clopidogrel, clopidogrel]
- substrate of P-gp (P-gp): substrate of P-gp
- AEs considered related to the study drugs ([1]; one subject each, parts 2 and 3): hematoma
- AUCτ,ss, gMean [2, 8]: 1400^b pg·h/mL
- Cmax,ss, gMean [2, 8]: 0.625 ng/mL
- AUC0-24, gMean [2, 9]: 10.574 ng·h/mL
- CL/Fss, gMean [2, 9]: 911000 mL/min
- Cmax, gMean [2, 9]: 4.013 ng/mL
- Emax ([3]; part 1, after single dose clopidogrel 300 mg, data not shown, read-out: maximum inhibition of ADP-dependent platelet aggregation (Emax)): ~50%
- Emax ([3]; part 2, reference: clopidogrel 75 mg qd, n 23, read-out: Emax, ss, mean (maximum percentage change in ADP-induced platelet aggregation)): 58.8%
- Emax ([3]; part 2, test: clopidogrel 75 mg qd + DE 150 mg bid, n 21, read-out: Emax, ss, mean (maximum percentage change in ADP-induced platelet aggregation)): 55.1%
- Emax ([3]; part 3, reference: clopidogrel 600 mg single dose, n 12, read-out: Emax, mean (maximum percentage change in ADP-induced platelet aggregation)): ~60%
- Emax ([3]; part 3, test: clopidogrel 600 mg + DE 150 mg bid, n 11, read-out: Emax, mean (maximum percentage change in ADP-induced platelet aggregation)): 66.8%
- AUECIPA, τ,ss difference test – reference [3, 10]: −39.7 %·h
- AUECIPA, τ,ss difference test – reference, relative [3, 10]: −8.0%
- AUECIPA, τ,ss, mean ([3]; part 2, reference: clopidogrel 75 mg qd, n 21): 496 %·h
- AUECIPA, τ,ss, mean ([3]; part 2, test: clopidogrel 75 mg qd + DE 150 mg bid, n 21): 456 %·h
- AUEC0–24h difference test – reference [3, 11]: −84.6 %·h
- AUEC0–24h difference test – reference, relative [3, 11]: −6.7%
- AUEC0–24h of IPA, mean [3, 12]: 1264 %·h
- Emax, mean (maximum percentage change in ADP-induced platelet aggregation) [3, 12]: 66.0%
- AUEC0–24h of IPA, mean ([3]; part 3, reference: clopidogrel 600 mg single dose, n 12, listed as clopidogrel): 1,264 %·h
- AUEC0–24h of IPA, mean ([3]; part 3, test: clopidogrel 600 mg + DE 150 mg bid, n 11): 1179 %·h
- AUEC0–24h of IPA, mean ([3]; part 3, test: clopidogrel 600 mg + DE 150 mg bid, n 11, listed as clopidogrel): 1,179 %·h
- bleeding time, overall least square means [4]: 1.96 times baseline
- maximum capillary bleeding time (CBT) [5]: prolonged
- effect on dabigatran PK/PD relationship (TT, ECT, aPTT vs plasma concentration) ([6]; part 2, DE given alone or in combination with clopidogrel): No effect

SMILES: CCCCCCOC(=O)NC(=N)c1ccc(NCc2nc3cc(C(=O)N(CCC(=O)OCC)c4ccccn4)ccc3n2C)cc1 [dabigatran etexilate]
- substrate for P-gp (P-gp): is a substrate for P-gp
- overall safety ([1]; given alone or in combination with clopidogrel): did not seem to cause any safety issues
- effect of coadministration on maximum ADP-dependent platelet aggregation achieved after clopidogrel ([3]; DE 150 mg coadministered, after single dose clopidogrel 300 mg): did not alter
- CBT on coadministration compared with clopidogrel alone ([5]; part 3, DE 150 mg bid with clopidogrel 600 mg vs single dose clopidogrel 600 mg alone): did not increase
- increase in gMean AUECτ,ss of aPTT ([6]; part 1, DE 150 mg bid steady state with single dose clopidogrel 300 mg vs DE alone): about 30%
- AUEC τ,ss and ERmax,ss of TT, ECT and aPTT after concomitant administration ([6]; part 2, clopidogrel 75 mg qd (300 mg loading dose) + DE 150 mg bid): not altered
- change in AUECτ,ss of aPTT ([6]; part 3, DE 150 mg bid with single dose clopidogrel 600 mg vs DE alone): approximately 36.5%
- dabigatran-related effect on TT, ECT and aPTT when clopidogrel coadministered ([6]; part 3, single dose clopidogrel 600 mg coadministered with DE 150 mg bid): slightly increased

SMILES: CCOC(=O)CN[C@@H](C(=O)N1CC[C@H]1C(=O)NCc1ccc(/C(N)=N\O)cc1)C1CCCCC1 [ximelagatran]
- further prolongation of CBT ([4]; phase I trial, in combination with acetylsalicylic acid (ASA) compared with ASA alone): about 40%

- increase in bioavailability (AUCτ,ss) ([2]; male, human, in vivo): 32%
SMILES: [H]/N=C(/N)c1ccc(NCc2nc3cc(C(=O)N(CCC(=O)O)c4ccccn4)ccc3n2C)cc1 [dabigatran]
- substrate for P-gp (P-gp): not
- maximum capillary bleeding time (CBT) [5]: did not prolong
- glucuronide conjugates as share of total dabigatran in plasma [7]: about 20%
- half-life ([7]; multiple-dose administration): 14 to 17 h
- half-life ([7]; single-dose administration): 8 to 10 h
- effect on coagulation parameters (aPTT, ECT, anti-factor IIa) when clopidogrel added ([6]; part 1, single dose clopidogrel 300 mg added to steady-state DE 150 mg bid): slightly increased

SMILES: O=C(NC[C@H]1CN(c2ccc(N3CCOCC3=O)cc2)C(=O)O1)c1ccc(Cl)s1 [rivaroxaban]
- bleeding time, overall least square means [4]: 1.13 times baseline

- AUC0–24 ([2]; part 1, clopidogrel 300 mg single dose with DE 150 mg bid): 35,400 pg h/mL
- AUCτ,ss ratio test/reference, gMean [2, 10]: 110%
- Cmax,ss ratio test/reference, gMean [2, 10]: 103%
- AUCτ,ss, gMean [2, 13]: 8008 ng·h/mL
- Cmax,ss, gMean [2, 13]: 2689 ng/mL
- AUCτ,ss, gMean [2, 14]: 8807 ng·h/mL
- Cmax,ss, gMean [2, 14]: 2760 ng/mL
- AUC0-24 ratio test/reference, gMean [2, 15]: 97.8%
- Cmax ratio test/reference, gMean [2, 15]: 85.7%
- AUC0-24, gMean ([2]; part 3, reference: clopidogrel 600 mg alone, n=12): 84.3 ng·h/mL
- AUC0-24, gMean ([2]; part 3, test: DE 150 mg bid + single dose clopidogrel 600 mg): 82.5 ng·h/mL
SMILES: O=C(O)[C@H](c1ccccc1Cl)N1CCc2sccc2C1 [SR26334]
